One experiment has as its system INSR. As to the kind of experiment: QRT-PCR of INSR mRNA in IMR-32 cells. The class given is cell-based, human. To be noted: 75 ppb and 150 ppb, 24 hours. As to the method:
(§1) Human IMR-32 cells were seeded on gelatinized 6-well (6.5×10^5 cells/well) or 24-well (1.3×10^5 cells/well) plates. Cells were treated with control (0 ppb) or various compounds for 6 hours or 24 hours. Total RNA from these cells was isolated using Trizol (Invitrogen) according to the manufacturer's protocol, and then incubated with DNase I to remove any potential contaminated genomic DNA. Then RNA samples were subjected to real-time PCR analysis using the Applied-Bioscience's RT kit and predesigned Taqman probes (Invitrogen), as described previously (Lan et al EMBO J 2003). The mRNA levels of UCP1, UCP2, UCP3, SLC25A27 (UCP4), SLC25A14 (UCP5), PSEN1, Nicastrin, GSK3B, MAPK11-14, PPARG, APOE, RCAN1, RCAN1.1, G6PC, INSR, IGF1R and FOXO4 were measured. Three to six samples were analyzed in each treatment group. Data were normalized by Actin B (ACTB) or Glyceraldehyde Phosphate Dehydrogenase (GAPDH) mRNA levels in each sample and are presented as mean±SEM of 3-6 samples.
(§2) To examine whether or not Compound C can regulate INSR/IGF1R signaling in IMR-32 cells, QRT-PCR analysis was performed to measure INSR and IGF1R mRNA levels. […] Mean±SEM, n=4. The * refers to a p value <0.05 when compared to the control group (0 ppb).

A further experiment deals with MAPK11. As to the kind of experiment: QRT-PCR of MAPK11 mRNA in control and FOXO4 KD IMR-32 cells. It is filed as cell-based, human. To be noted: 24 hours. Here is the method:
(§3) IMR-32 cells were cultured on 12-well plates for 24 hours and then incubated with FOXO4 siRNA lentiviruses (SC-29650V, Santa Cruz) or control siRNA lentiviruses (sc-108080, Santa Cruz) in the presence of Polybrene (5 μg/ml, Santa Cruz) for 24 hours according to the manufacturer's protocol. These lentiviral siRNA-transfected cells were amplified in normal media for 3 days and then incubated with puromycin for 9-14 days to obtain the stable Control KD (stably transfected with the control siRNAs) and FOXO4KD (stably transfected with Foxo4 siRNAs) cells. These control and Foxo4 KD cells were subjected to cell survival, mitochondrial potential and RNA analysis.
as §1
(§4) Normal control cells and FOXO4KD cells were incubated with two doses of Compound C for 24 hours, and subjected to QRT-PCR analysis of the MAPK11-14 genes. The relative mRNA expression of all four MAPK genes in normal control IMR-32 cells was assessed. […] Data in Compound C-treated control and FOXO4 KD cells were normalized by their levels in control and FOXO4KD cells, respectively. Mean±SEM of indicated number of samples in the bar graphs. […]

The test system of another experiment is BACE1. As to the kind of experiment: Western blot of BACE1 in APP/PS1 mouse brains. It is filed as in vivo. Conditions: APP/PS1 mice, Compound C diet vs control diet. Here is the method:
Male APPΔNLh/ΔNLh×PS1P246 L/246 L knock-in model mice of Alzheimer's disease (abbreviated APP/PS1) were genotyped using standard primers for human APP (Amyloid Precursor Protein) and human PS1 (PSEN1). These APP/PS1 mice starting at the age of 6 months, were fed either a control diet containing normal levels of selenium (0.3 ppm from plant and inorganic selenium salt sources) or an experimental diet containing Compound C (the control diet to which was added 1 ppm Se from Compound C) for 6 months. […]
Frozen hemispheres of control- and Compound C-treated APP/PS1 mice were weighed and homogenized in PBS buffer, and then subsequently extracted with RIPA buffer (Sigma) containing complete proteinase and phosphatase inhibitors (Fisher Scientific). Protein levels in the samples were determined by micro-BCA protein analysis according to the manufacturer's protocol. […] Positive signals on the membrane blots were detected using Amersham's enhanced chemiluminescence Western Blotting Prime Detection reagents (GE healthcare Lifescience, Pittsburgh, Pa.). Images of these luminescence signals on the membrane blots were captured using the LI-COR Odyssey Fc Image system (Lincoln, Nebr.). Protein band densities in Western blots were determined using NIH Image J software, and then normalized by Actb levels in each samples to obtain the protein levels.
For orientation: Immunoblotting shows a protein as a band on a membrane.

The test system of another experiment is IGF1R. As to the kind of experiment: QRT-PCR of IGF1R mRNA in IMR-32 cells. The class given is cell-based, human. To be noted: 75 ppb and 150 ppb, 24 hours. As to the method:
as §1, §2

A further experiment deals with MAPK14. As to the kind of experiment: QRT-PCR of MAPK14 mRNA in control and FOXO4 KD IMR-32 cells. The class given is cell-based, human. To be noted: 24 hours. Here is the method:
as §3, §1, §4

The subject of another experiment is RCAN1. As to the kind of experiment: QRT-PCR of RCAN1 and RCAN1.1 mRNA in control and FOXO4 KD IMR-32 cells. It is filed as cell-based, human. To be noted: 24 hours. As to the method: as §3, §1
To investigate whether Compound C can regulate transcription of RCAN1 in a dose-dependent and FOXO4-dependent manner, normal control cells and FOXO4 KD cells were treated with two doses of Compound C for 24 hours, and subjected to QRT-PCR analysis. First a specific RCAN1 Taqman probe that can recognize all RCAN1 mRNA isoforms was used to determine if Compound C can regulate the transcription of RCAN1.
To further determine whether Compound C can regulate the transcription of RCAN1.1 mRNA, the above Compound C-treated RNA samples were subjected to QRT-PCR using a specific RCAN1.1 mRNA Taqman probe.

[1] abbreviates: FOXO4KD cells, 75 ppb and 150 ppb.

The results in this text go back to patent US10201558B2, “Compositions of selenoorganic compounds and methods of use thereof” (Alltech, Inc., priority 2014, dated 2019).

“Also recorded” adds a separate entry of the source.

`C[Se]C[C@H]1O[C@@H](n2cnc3c(N)ncnc32)C(O)C1O` (stereo in doubt) [Compound C, 5′-deoxy-5′-methylselenoadenosine]: the “INSR mRNA expression levels” value in the experiment with INSR is reported as “downregulated”. Besides, the “MAPK11 mRNA levels” value is on record as “none of the mRNA levels of the four MAPK genes in FOXO4KD cells were significantly altered” with MAPK11 (setting [1]); “significant decrease” with MAPK11 (control KD cells, 75 ppb); “significantly decreased” in the experiment with MAPK11 (control KD cells, 150 ppb). The “BACE-1 protein levels in the brains” value in the experiment with BACE1 is on record as “reduced; also recorded: decreased”. Moreover, the “IGF1R mRNA expression levels” value with IGF1R is on record as “downregulated”. Also, the “MAPK14 mRNA levels” value with MAPK14 (setting [1]) is on record as “none of the mRNA levels of the four MAPK genes in FOXO4KD cells were significantly altered”; in the experiment with MAPK14 (control KD cells, 75 ppb) it was “trend towards decreased”; with MAPK14 (control KD cells, 150 ppb), “significantly decreased”. Moreover, the “RCAN1.1 mRNA expression” value was “not significantly affected” with RCAN1 (setting [1]) and “inhibited” in the experiment on RCAN1 (control cells, 150 ppb). Moreover, the “total RCAN1 mRNA levels” value is reported as “not significantly altered” with RCAN1 (setting [1]); “dose-dependent decrease; also recorded: significantly attenuated” in the experiment on RCAN1 (control cells (control siRNA lentiviruses), 75 ppb and 150 ppb).
